Experimental data taken from patent US20130280391A1, “ANTI-MICROBIAL WASH COMPOSITIONS INCLUDING CERAGENIN COMPOUNDS AND METHODS OF USE FOR TREATING NON-MEAT FOOD PRODUCTS” (BRIGHAM YOUNG UNIVERSITY, priority 2012, published 2013).

Legend:
[1] = test system: Salmonella bacteria; test: Example 2: killing of Salmonella inoculated on food product samples by dip in wash composition; type: cell-based; conditions: 30 second dip; for level of Salmonella bacteria in the rinsate: positive control nearly 10^3.5 CFUs/mL
Experimental: (§1) Example 2 was performed to determine the effectiveness of an anti-microbial wash composition including a ceragenin compound in controlling growth of Salmonella bacteria by fighting off a Salmonella inoculation. Example 3 was similarly performed to determine the effectiveness of the wash composition in controlling growth of Campylobacter bacteria by fighting off a Campylobacter inoculation. Examples 2 and 3 simulate the effectiveness of the present anti-microbial wash compositions to kill Salmonella and Campylobacter on a food product where the food product has become contaminated with Salmonella bacteria or Campylobacter bacteria.
(§2) A total of 15 food product samples were used for these tests. The 15 samples were divided into five groups of three each. Three samples were left untreated to serve as a negative control in order to observe natural levels of bacteria present on the samples. The remaining 12 samples were then inoculated with 1 mL of Salmonella and 1 mL of Campylobacter. The samples were allowed to dry for 20 minutes in order for the bacteria to adhere to the surface of the food product samples. One group of three of the inoculated samples, designated the positive control, were then rinsed with a wash composition including no anti-microbial agent to determine the level of bacteria after inoculation.
(§3) Each sample was withdrawn after 30 seconds. […] Each sample was withdrawn after 30 seconds. The fifth group of three inoculated samples was dipped one by one into a comparative proprietary non-CSA wash composition. Each of the samples was then rinsed, and the rinsate was collected to determine the levels and types of bacteria from each group. […] In other words, there were no changes to color, texture, taste, or smell, as a result of application of the ceragenin wash compositions.
In other words, the wash composition including 500 ppm ceragenin compound killed 100% of Salmonella bacteria present.

[2] = test system: Campylobacter bacteria; test: Example 3: killing of Campylobacter inoculated on food product samples by dip in wash composition; type: cell-based; conditions: 30 second dip; for log reduction of Campylobacter: versus positive control
Experimental: as §1, §2, §3
In other words, the treatment was effective in killing 93.7% of the Campylobacter bacteria. […] In other words, the treatment was effective in killing 80% of the Campylobacter bacteria.

[3] = 1000 ppm by weight aqueous wash

CCCCCCCCOC(=O)CC[C@@H](C)[C@H]1CC[C@H]2[C@@H]3[C@H](OC(=O)CCN)C[C@@H]4C[C@H](OC(=O)CCN)CC[C@]4(C)[C@H]3C[C@H](OC(=O)CCN)[C@]12C [CSA-44]
Salmonella bacteria killed ([1]; 500 ppm by weight aqueous wash): 100%
level of Salmonella bacteria in the rinsate ([1]; 500 ppm by weight aqueous wash): no detectable level of Salmonella bacteria
level of Salmonella bacteria in the rinsate [1, 3]: no detectable level of Salmonella bacteria
Campylobacter bacteria killed ([2]; 500 ppm by weight aqueous wash): 93.7%
log reduction of Campylobacter ([2]; 500 ppm by weight aqueous wash): 1.2 log
Campylobacter bacteria killed [2, 3]: 80%
log reduction of Campylobacter [2, 3]: 0.8 log
